We go through 18 compounds from the Kinase Knowledgebase extract (Sharma et al. 2016).

The assay has as its target MAPK14;MAPK11;MAPK12;MAPK13 (human) (UniProt Q16539). Description: Assessment of Activity of MAPK11, MAPK12, MAPK13 and MAPK14 Kinases.

Take `Cc1ccc(C(=O)NC2CC2)cc1Nc1cc(=O)n(C)c2c1cnn2-c1cc(F)ccc1F`: the 50% inhibitory concentration (IC50) (commonly the concentration at which inhibition is half-maximal) is < 0.025 µM.

On to `Cn1c(=O)cc(Nc2cc(C(=O)NC3CC3)ccc2F)c2cnn(-c3ccc(F)cc3F)c21`, for which the IC50 was < 0.025 µM. Regarding `Cc1ccc(C(=O)NC2CC2)cc1Oc1cc(=O)n(C)c2c1cnn2-c1c(F)cccc1F`, the IC50 is < 0.025 µM. For the compound `Cn1c(=O)cc(Nc2cc(C(=O)NC3CC3)ccc2Cl)c2cnn(-c3cc(F)ccc3F)c21`, the IC50 is < 0.025 µM. The same measure for `CCn1c(=O)cc(Nc2cc(C(=O)NC3CC3)ccc2Cl)c2cnn(-c3ccc(F)cc3F)c21`: 0.0012 µM; for `Cc1ccc(C(=O)NC2CC2)cc1Oc1cc(=O)n(C)c2c1cnn2-c1cc(F)ccc1F`: < 0.025 µM; for `CCn1c(=O)cc(Nc2cc(C(=O)NC3CC3)ccc2C)c2cnn(-c3ccc(F)cc3)c21`: < 0.025 µM. The same measure for `Cc1ccc(C(=O)NC2CC2)cc1Nc1cc(=O)n(C)c2c1cnn2-c1c(F)cccc1F`: < 0.025 µM. In the case of `CCn1c(=O)cc(Nc2cc(C(=O)NC3CC3)ccc2Cl)c2cnn(-c3ccc(F)cc3)c21`, the IC50 came to 0.0017 µM. The same measure for `Cn1c(=O)cc(Nc2cc(C(=O)NC3CC3)ccc2Cl)c2cnn(-c3ccc(F)cc3)c21`: 0.0021 µM; for `CCn1c(=O)cc(Oc2cc(C(=O)NC3CC3)ccc2C)c2cnn(-c3ccc(F)cc3)c21`: < 0.025 µM; for `Cn1c(=O)cc(Nc2cc(C(=O)NC3CC3)ccc2Cl)c2cnn(-c3c(F)cccc3F)c21`: < 0.025 µM. Consider `Cc1ccc(C(=O)NC2CC2)cc1Oc1cc(=O)n(C)c2c1cnn2-c1cccc(F)c1`, for which the IC50 is < 0.025 µM. Next, `Cc1ccc(C(N)=O)cc1Nc1cc(=O)n(C)c2c1cnn2-c1ccc(F)cc1F`: < 0.025 µM; `Cc1ccc(C(=O)NC2CC2)cc1Nc1cc(=O)n(C)c2c1cnn2-c1cccc(F)c1`: < 0.025 µM; `Cc1ccc(C(=O)NC2CC2)cc1Oc1cc(=O)n(C)c2c1cnn2-c1ccc(F)cc1F`: < 0.025 µM. On to `CONC(=O)c1ccc(C)c(Nc2cc(=O)n(C)c3c2cnn3-c2ccc(F)cc2F)c1`, for which the IC50 is 0.0016 µM. On to `Cc1ccc(C(N)=O)cc1Nc1cc(=O)n(C)c2c1cnn2-c1cc(F)ccc1F`, for which the 50% inhibitory concentration (IC50) was < 0.025 µM.
